Measured values published in the supplement of paper PMC12463676, “Small-molecule dissolution of stress granules by redox modulation benefits ALS models” (Nature Chemical Biology, 2025).

The targets below were run with NC(=O)CCCCC1CCSS1 [lipoamide] (assay: thermal stability z-score vs DMSO; higher = more thermally stabilized by treatment). Conditions: HeLa; lipoamide concentration 100 µM; arsenate co-treatment: none.
Protocol: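 Cellular thermal proteome profiling in HeLa cells. Cells were treated with 100 µM lipoamide for 1 h, with or without 1 mM arsenate for a further 1 h, then heated to ten temperatures (37-66.3 °C), and soluble protein was quantified by TMT mass spectrometry relative to 0.1% DMSO controls. The thermal stability score (sum of log2 fold changes minus the abundance score) was transformed to a z-score; mean of n = 3 experiments.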
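Further: each temperature applied for 3 min, abundance score taken as mean log2 fold change at the two lowest temperatures, z-score obtained by mean subtraction and division by SD.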

Sequence of UniProt Q96G04 (Q96G04 whole entry): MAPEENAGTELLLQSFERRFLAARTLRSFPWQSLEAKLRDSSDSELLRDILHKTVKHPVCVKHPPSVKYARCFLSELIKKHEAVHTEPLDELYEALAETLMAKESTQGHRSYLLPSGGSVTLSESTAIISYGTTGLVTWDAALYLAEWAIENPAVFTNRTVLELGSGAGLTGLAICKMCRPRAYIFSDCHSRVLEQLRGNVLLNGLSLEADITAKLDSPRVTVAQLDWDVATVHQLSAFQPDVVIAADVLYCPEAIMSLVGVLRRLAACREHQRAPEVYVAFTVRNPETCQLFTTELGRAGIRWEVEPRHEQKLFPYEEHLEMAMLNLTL
Sequence of UniProt P61916 (P61916 whole entry): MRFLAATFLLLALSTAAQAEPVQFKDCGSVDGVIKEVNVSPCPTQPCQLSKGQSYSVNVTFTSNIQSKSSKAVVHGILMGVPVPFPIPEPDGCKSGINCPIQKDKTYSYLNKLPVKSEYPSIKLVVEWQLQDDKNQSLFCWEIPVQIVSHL
Sequence of UniProt Q92968 (Q92968 whole entry): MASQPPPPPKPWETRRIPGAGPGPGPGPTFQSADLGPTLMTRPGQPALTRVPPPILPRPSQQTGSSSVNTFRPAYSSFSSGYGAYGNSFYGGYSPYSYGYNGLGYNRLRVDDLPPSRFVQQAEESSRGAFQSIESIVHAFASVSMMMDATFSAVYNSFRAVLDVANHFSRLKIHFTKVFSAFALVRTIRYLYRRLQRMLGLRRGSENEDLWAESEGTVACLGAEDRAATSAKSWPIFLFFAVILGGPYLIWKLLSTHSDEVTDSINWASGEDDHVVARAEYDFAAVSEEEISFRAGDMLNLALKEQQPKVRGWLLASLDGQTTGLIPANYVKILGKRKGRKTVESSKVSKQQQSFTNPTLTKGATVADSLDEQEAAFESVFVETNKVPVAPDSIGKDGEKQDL
Sequence of UniProt Q15650 (Q15650 whole entry): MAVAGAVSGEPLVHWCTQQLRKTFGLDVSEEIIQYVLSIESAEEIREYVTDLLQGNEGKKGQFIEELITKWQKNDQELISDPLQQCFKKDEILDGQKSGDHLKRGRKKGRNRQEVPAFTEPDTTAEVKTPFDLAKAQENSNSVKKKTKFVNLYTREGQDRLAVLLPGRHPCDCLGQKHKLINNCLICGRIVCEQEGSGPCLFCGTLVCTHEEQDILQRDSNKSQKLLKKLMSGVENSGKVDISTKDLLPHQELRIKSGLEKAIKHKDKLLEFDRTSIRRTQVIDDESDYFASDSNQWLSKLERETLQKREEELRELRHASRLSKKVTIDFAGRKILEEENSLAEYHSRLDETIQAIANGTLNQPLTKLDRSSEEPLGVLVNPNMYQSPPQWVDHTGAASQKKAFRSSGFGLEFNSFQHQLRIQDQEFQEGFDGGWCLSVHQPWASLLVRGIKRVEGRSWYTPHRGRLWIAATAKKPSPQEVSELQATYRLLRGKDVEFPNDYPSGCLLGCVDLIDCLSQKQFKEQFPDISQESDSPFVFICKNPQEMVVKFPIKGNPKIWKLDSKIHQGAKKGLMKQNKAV
Sequence of UniProt Q12770 (Q12770 whole entry): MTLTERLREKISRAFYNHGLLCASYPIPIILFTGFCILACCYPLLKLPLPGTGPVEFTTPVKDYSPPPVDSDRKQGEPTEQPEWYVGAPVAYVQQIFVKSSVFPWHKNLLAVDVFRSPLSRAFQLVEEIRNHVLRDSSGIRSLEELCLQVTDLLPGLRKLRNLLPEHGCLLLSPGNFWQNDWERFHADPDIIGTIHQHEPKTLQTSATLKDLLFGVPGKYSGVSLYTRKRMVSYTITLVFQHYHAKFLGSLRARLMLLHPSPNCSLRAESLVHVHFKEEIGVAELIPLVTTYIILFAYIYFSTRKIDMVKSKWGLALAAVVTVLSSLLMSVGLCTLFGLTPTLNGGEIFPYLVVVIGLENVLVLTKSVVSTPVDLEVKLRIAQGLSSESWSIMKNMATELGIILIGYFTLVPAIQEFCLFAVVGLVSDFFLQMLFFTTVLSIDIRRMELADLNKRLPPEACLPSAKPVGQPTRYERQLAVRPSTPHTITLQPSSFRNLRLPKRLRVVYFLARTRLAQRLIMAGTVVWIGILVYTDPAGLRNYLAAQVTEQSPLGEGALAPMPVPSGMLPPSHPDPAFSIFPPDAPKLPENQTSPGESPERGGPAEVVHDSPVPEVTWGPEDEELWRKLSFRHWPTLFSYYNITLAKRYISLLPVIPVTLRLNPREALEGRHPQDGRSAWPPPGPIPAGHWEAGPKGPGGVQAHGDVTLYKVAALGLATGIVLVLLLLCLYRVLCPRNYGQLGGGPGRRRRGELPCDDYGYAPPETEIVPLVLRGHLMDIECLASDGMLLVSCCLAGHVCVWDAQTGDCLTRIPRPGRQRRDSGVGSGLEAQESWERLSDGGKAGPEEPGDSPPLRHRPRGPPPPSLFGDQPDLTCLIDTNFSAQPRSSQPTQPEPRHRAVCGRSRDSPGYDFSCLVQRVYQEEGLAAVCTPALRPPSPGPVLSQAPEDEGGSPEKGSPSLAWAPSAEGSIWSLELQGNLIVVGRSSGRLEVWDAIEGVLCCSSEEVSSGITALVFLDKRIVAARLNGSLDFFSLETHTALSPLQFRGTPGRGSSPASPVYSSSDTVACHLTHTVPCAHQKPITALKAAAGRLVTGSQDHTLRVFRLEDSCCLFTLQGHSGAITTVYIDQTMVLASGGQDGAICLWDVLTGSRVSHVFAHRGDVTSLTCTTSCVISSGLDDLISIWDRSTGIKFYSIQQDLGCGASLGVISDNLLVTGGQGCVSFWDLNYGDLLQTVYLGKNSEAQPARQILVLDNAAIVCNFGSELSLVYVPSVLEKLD
Sequence of UniProt Q96IU4 (Q96IU4 whole entry): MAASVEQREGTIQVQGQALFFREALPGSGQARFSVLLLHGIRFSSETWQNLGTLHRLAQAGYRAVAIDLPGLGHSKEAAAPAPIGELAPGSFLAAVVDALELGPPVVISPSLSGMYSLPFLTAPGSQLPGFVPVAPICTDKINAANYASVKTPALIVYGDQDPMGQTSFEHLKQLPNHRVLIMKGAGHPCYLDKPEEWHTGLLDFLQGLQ
Sequence of UniProt Q9P289 (Q9P289 whole entry, looked up): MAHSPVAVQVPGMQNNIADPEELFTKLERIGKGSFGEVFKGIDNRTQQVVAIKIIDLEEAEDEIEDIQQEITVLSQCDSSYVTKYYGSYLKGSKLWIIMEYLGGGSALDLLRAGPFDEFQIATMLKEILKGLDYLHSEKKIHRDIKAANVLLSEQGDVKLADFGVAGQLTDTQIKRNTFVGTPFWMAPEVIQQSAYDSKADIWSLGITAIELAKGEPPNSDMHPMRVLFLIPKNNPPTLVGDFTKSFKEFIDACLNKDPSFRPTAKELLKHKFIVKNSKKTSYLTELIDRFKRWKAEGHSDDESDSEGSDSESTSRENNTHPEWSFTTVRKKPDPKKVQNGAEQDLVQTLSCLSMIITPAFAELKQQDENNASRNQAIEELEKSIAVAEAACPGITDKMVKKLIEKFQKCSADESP
Sequence of UniProt P06454 (P06454 whole entry): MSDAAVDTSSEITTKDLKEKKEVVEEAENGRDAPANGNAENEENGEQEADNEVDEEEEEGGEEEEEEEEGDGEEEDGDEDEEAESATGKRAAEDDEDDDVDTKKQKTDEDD
Sequence of UniProt Q9Y3D0 (Q9Y3D0 whole entry): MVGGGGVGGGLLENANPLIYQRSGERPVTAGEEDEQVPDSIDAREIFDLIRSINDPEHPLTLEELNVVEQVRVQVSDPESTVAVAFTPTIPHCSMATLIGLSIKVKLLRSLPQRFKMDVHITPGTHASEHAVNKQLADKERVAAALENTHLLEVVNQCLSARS
Sequence of UniProt Q9BZF1 (Q9BZF1 whole entry): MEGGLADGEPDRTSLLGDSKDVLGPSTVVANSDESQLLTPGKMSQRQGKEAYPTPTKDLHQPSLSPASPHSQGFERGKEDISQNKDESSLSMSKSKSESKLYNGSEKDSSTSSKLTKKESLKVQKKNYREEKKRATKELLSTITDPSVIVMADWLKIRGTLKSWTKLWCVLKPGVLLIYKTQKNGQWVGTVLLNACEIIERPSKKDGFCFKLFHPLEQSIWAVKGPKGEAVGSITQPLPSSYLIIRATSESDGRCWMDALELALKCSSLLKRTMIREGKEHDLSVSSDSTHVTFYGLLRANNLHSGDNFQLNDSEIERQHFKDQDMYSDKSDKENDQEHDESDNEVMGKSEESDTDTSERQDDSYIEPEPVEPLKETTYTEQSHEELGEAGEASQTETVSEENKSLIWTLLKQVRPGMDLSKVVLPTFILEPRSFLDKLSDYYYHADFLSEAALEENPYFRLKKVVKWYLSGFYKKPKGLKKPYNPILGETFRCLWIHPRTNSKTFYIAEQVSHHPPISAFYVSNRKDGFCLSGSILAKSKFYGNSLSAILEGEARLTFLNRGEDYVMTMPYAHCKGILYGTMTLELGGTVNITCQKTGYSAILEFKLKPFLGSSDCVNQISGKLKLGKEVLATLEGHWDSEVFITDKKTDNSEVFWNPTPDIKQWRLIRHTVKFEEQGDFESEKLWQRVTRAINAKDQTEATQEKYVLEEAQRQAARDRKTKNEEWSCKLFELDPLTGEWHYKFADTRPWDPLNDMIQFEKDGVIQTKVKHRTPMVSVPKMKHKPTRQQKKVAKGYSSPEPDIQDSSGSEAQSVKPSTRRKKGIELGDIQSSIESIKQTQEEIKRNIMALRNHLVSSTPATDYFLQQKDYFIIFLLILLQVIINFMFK
Sequence of UniProt P30281 (P30281 whole entry): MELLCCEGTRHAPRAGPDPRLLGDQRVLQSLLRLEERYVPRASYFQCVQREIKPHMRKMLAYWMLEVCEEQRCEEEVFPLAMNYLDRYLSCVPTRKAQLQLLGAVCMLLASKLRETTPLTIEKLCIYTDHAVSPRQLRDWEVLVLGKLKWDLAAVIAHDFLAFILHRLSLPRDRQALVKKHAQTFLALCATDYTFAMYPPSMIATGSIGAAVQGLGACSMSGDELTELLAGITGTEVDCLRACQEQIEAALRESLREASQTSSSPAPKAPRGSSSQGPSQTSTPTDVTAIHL

Row | Target | thermal stability z-score
1 | STK26 (UniProt Q9P289) | 1.24
2 | LARP4 (UniProt Q71RC2) | -0.301
3 | TIPIN (UniProt Q9BVW5) | 0.146
4 | MRPL35 (UniProt Q9NZE8) | -0.048
5 | HEG1 (UniProt Q9ULI3) | 1.15
6 | SMOC1 (UniProt Q9H4F8) | -0.458
7 | PTMA (UniProt P06454) | 1.23
8 | UBXN4 (UniProt Q92575) | -0.121
9 | SYF2 (UniProt O95926) | 0.837
10 | CCND3 (UniProt P30281) | 0.374
11 | NDUFB10 (UniProt O96000) | -0.759
12 | SLC11A2 (UniProt P49281) | -0.179
13 | CHID1 (UniProt Q9BWS9) | -1.7
14 | CNBP (UniProt P62633) | 0.142
15 | PTTG1IP (UniProt P53801) | -0.0338
16 | SLC38A10 (UniProt Q9HBR0) | 0.226
17 | DPYD (UniProt Q12882) | 0.178
18 | ANKRD13A (UniProt Q8IZ07) | -0.0472

Row | Target | thermal stability z-score
19 | PEX13 (UniProt Q92968) | 0.834
20 | FBXO2 (UniProt Q9UK22) | 0.137
21 | EEF2KMT (UniProt Q96G04) | 0.046
22 | NPC2 (UniProt P61916) | 0.738
23 | MED7 (UniProt O43513) | -0.104
24 | DLD (UniProt P09622) | 1.04
25 | RACGAP1 (UniProt Q9H0H5) | -0.0575
26 | FAM60A (UniProt Q9NP50) | 0.262
27 | RPL13 (UniProt P26373) | 0.00879
28 | CSNK2B (UniProt P67870) | 1.48
29 | IGF2BP2 (UniProt Q9Y6M1) | 0.044
30 | DTX3L (UniProt Q8TDB6) | -0.366
31 | ABHD14B (UniProt Q96IU4) | 0.828
32 | FAHD1 (UniProt Q6P587) | 0.339
33 | TRIP4 (UniProt Q15650) | 0.422
34 | FAM96B (UniProt Q9Y3D0) | -0.0578
35 | SCAP (UniProt Q12770) | 0.0662
36 | OSBPL8 (UniProt Q9BZF1) | -1.21

Each target was assayed with O=[As]([O-])(O)O.[K+] [potassium arsenate] in the same assay as above. Conditions: HeLa; arsenate concentration 1 mM.
Protocol: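 Cellular thermal proteome profiling in HeLa cells treated with 1 mM arsenate for 1 h (DMSO pretreatment), heated to ten temperatures (37-66.3 °C). Soluble protein was quantified by TMT mass spectrometry relative to DMSO controls; the thermal stability score was transformed to a z-score; mean of n = 3 experiments.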

Row | Target | thermal stability z-score
37 | DENND4C (UniProt Q5VZ89) | 0.337
38 | MTG1 (UniProt Q9BT17) | 0.195
39 | PIK3CB (UniProt P42338) | -0.371
40 | TMCO4 (UniProt Q5TGY1) | -0.0739
41 | TIPRL (UniProt O75663) | 0.122
42 | PPP2R5C (UniProt Q13362) | -0.0211
43 | COPZ1 (UniProt P61923) | 0.734
44 | KIF2C (UniProt Q99661) | 0.56
45 | POLRMT (UniProt O00411) | -0.331
46 | INPP5B (UniProt P32019) | -0.211
47 | RBFOX2 (UniProt O43251) | 0.171
48 | USP32 (UniProt Q8NFA0) | -0.0527
49 | S100A6 (UniProt P06703) | 1.15
50 | MRPS34 (UniProt P82930) | 0.427
51 | TSR1 (UniProt Q2NL82) | 0.334
52 | TRABD2A (UniProt Q86V40) | 0.517
53 | EIF2S2 (UniProt P20042) | -0.16
54 | FBXO9 (UniProt Q9UK97) | -0.61
55 | RPE (UniProt Q96AT9) | -0.0195
56 | MRPL23 (UniProt Q16540) | 0.525
57 | AIF1L (UniProt Q9BQI0) | -0.374
58 | TNS3 (UniProt Q68CZ2) | 1.32
59 | ECEL1 (UniProt O95672) | 1.11
60 | NVL (UniProt O15381) | 0.0113

Row | Target | thermal stability z-score
61 | TRIM28 (UniProt Q13263) | -1.49
62 | POLR2L (UniProt P62875) | 0.335
63 | ABCA2 (UniProt Q9BZC7) | -0.0916
64 | NEFH (UniProt P12036) | 0.4
65 | MTHFD1 (UniProt P11586) | -0.927
66 | TARDBP (UniProt Q13148) | -0.755
67 | PDP1 (UniProt Q9P0J1) | -0.0616
68 | HACD2 (UniProt Q6Y1H2) | 0.798
69 | MESDC2 (UniProt Q14696) | 0.346
70 | OAT (UniProt P04181) | 3.08
71 | PASK (UniProt Q96RG2) | -0.353
72 | STK26 (UniProt Q9P289) | 1.4
73 | LARP4 (UniProt Q71RC2) | -0.708
74 | TIPIN (UniProt Q9BVW5) | 0.349
75 | MRPL35 (UniProt Q9NZE8) | 0.129
76 | HEG1 (UniProt Q9ULI3) | 0.868
77 | SMOC1 (UniProt Q9H4F8) | -1.55
78 | PTMA (UniProt P06454) | 0.425
79 | UBXN4 (UniProt Q92575) | -0.265
80 | SYF2 (UniProt O95926) | -0.951
81 | CCND3 (UniProt P30281) | -0.0207
82 | NDUFB10 (UniProt O96000) | 0.18
83 | SLC11A2 (UniProt P49281) | 0.512
84 | CHID1 (UniProt Q9BWS9) | 1.18

Row | Target | thermal stability z-score
85 | CNBP (UniProt P62633) | -0.088
86 | PTTG1IP (UniProt P53801) | -0.2
87 | SLC38A10 (UniProt Q9HBR0) | -0.0408
88 | DPYD (UniProt Q12882) | 0.0708
89 | ANKRD13A (UniProt Q8IZ07) | -0.0666
90 | PEX13 (UniProt Q92968) | 0.284
91 | FBXO2 (UniProt Q9UK22) | 0.0529
92 | EEF2KMT (UniProt Q96G04) | 0.0729
93 | NPC2 (UniProt P61916) | -0.391
94 | MED7 (UniProt O43513) | -0.328
95 | DLD (UniProt P09622) | -0.681
96 | RACGAP1 (UniProt Q9H0H5) | -0.148
97 | FAM60A (UniProt Q9NP50) | -0.681
98 | RPL13 (UniProt P26373) | -1.05
99 | CSNK2B (UniProt P67870) | 0.656
100 | IGF2BP2 (UniProt Q9Y6M1) | -0.165
101 | DTX3L (UniProt Q8TDB6) | 0.176
102 | ABHD14B (UniProt Q96IU4) | 0.527
103 | FAHD1 (UniProt Q6P587) | 0.21
104 | TRIP4 (UniProt Q15650) | -0.932
105 | FAM96B (UniProt Q9Y3D0) | -0.128
106 | SCAP (UniProt Q12770) | -0.473
107 | OSBPL8 (UniProt Q9BZF1) | -0.00618
